# Source: US20210317141A1, “OXOPYRIDO[1,2-A]PYRIMIDINE COMPOUNDS FOR THE TREATMENT AND PROPHYLAXIS OF BACTERIAL INFECTION” (Hoffmann-La Roche Inc., priority 2018, published 2021)
# Like-named read-outs stand apart in the source and are kept apart here.
# Legend:
# E. coli (ATCC 25922) = experiment: Minimal Inhibitory Concentration (MIC) assay; assay type: cell-based; details: Escherichia coli, read-out: MIC (μg/mL) E. coli ATCC 25922
# Protocol: The in vitro potency of compounds to inhibit E. coli (ATCC 25922) growth was assessed by MIC (Minimal Inhibitory Concentration) assay. Samples were prepared from 10 mM DMSO stock solutions. After serial 2-fold dilution in DMSO in a master plate (Greiner, Cat No: 651201), 180 μL sterile distilled water was added to 20 μL each aliquot of the samples. Then […], diluted compounds were transferred into a new assay plate (Costar, 3599).
# The growth medium […] Mueller Hinton Broth (CAMHB) was prepared by adding the 20 mg per liter CaCl2) and 20 mg per liter MgCl2 into the MHB medium (Jianglai Company, sterilized).
# Vials of each of the test microorganisms were maintained frozen in the vapor phase of a liquid nitrogen freezer. Took out the bacteria E. coli ATCC 25922 (KWIKSTIK, 0335K) from liquid nitrogen freezer, thawed it in room temperature, and diluted the bacterial in the CAMHB medium to achieve a final inoculum of 5×10^5 CFU/mL. 90 μL CAMHB with bacteria was dispensed to the assay plate and pipetted 5 times.
# Then the assay plates were incubated for 20 hours at 35° C. in ambient air. Following incubation, the MIC (μg/mL), the lowest concentration of drug that inhibits visible growth of the microorganism was read and recorded throw the microscope.
# [1] = Lyophilisation solubility assay (LYSA); assay type: physicochemical; details: aqueous buffer, thermodynamic from solid; 0.05 M phosphate buffer, pH 6.5; * = detection limit
# Protocol: The solubility of compounds of present invention was assessed by LYSA assay. Samples were prepared in duplicate from 10 mM DMSO stock solutions (20 μL) diluted in 30 μL pure DMSO. After evaporation of DMSO with a centrifugal vacuum evaporator, the residue was dissolved in 0.05 M phosphate buffer (150 μL, pH 6.5), stirred for one hour and shook for two hours. After one night, the solution was filtered using a microtiter filter plate. Then the filtrate and its 1/10 dilution were analyzed by HPLC-UV. In addition, a four-point calibration curve was prepared from the 10 mM stock solutions and used for the solubility determination of the compounds.
# [2] = test system: K. pneumoniae (ATCC10031); experiment: 50% growth inhibitory concentration (IC50) determination assay, K. pneumoniae; assay type: cell-based; details: Klebsiella pneumoniae, growth inhibition, Iso-Sensitest broth, OD 600 nm over 16 h, * = detection limit
# Protocol: (§1) The in vitro antimicrobial activity of the compounds against E. coli (BW25113, obtained from Coli Genetic Stock Center, #7636) and K. pneumoniae (ATCC10031) was determined according to the following procedure:
# (§2) The assay used a 10-points Iso-Sensitest broth medium to measure quantitatively the in vitro activity of the compounds against E. coli BW25113 and K. pneumoniae ATCC 10031.
# (§3) Stock compounds in DMSO were serially two-fold diluted (range from 50 to 0.097 μM final concentration) in 384 wells microtiter plates and inoculated with 49 μL the bacterial suspension in Iso-Sensitest broth medium to have a final cell concentration of ˜5×10^5 CFU/mL in a final volume/well of 50 μL/well. Microtiter plates were incubated at 35±2° C.
# (§4) Bacterial cell growth was determined with the measurement of optical density at k=600 nm each 20 minutes over a time course of 16 h.
# (§5) Growth inhibition was calculated during the logarithmic growth of the bacterial cells with determination of the concentration inhibiting 50% (IC50) of the growth.
# E. coli (BW25113) = experiment: 50% growth inhibitory concentration (IC50) determination assay, E. coli; assay type: cell-based; details: Escherichia coli, growth inhibition, Iso-Sensitest broth, OD 600 nm over 16 h, 35±2° C., read-out: IC50 (μM) E. coli K12 BW25113
# Protocol: as §1, §2, §3, §4, §5
# [3] = ATCC25922, CAMHB, 20 hours at 35° C.
Structure (SMILES),MIC (E. coli (ATCC 25922); [3]),solubility thermodynamic [1],"MIC (E. coli (ATCC 25922); ATCC25922, 20 h)",IC50 [2],IC50 (E. coli (BW25113))
"CNc1cc(F)cc2c1[nH]c1ncc(-c3ccc4ncc(C(=O)O)c(=O)n4c3)c(N3CCC(c4ccccc4)C3)c12 (stereo not drawn) [Example 1.25, 7-(6-Fluoro-8-(methylamino)-4-(3-phenylpyrrolidin-1-yl)-9H-pyrido[2,3-b]indol-3-yl)-4-oxo-4H-pyrido[1,2-a]pyrimidine-3-carboxylic acid]",0.697 µg/mL,–,–,–,–
"CNc1cc(F)c(F)c2c1[nH]c1ncc(-c3cc(C)c4ncc(C(=O)O)c(=O)n4c3)c(N3CCC4CN(C)CC43)c12 (stereo not drawn) [Example 1.33, 7-[5,6-Difluoro-4-(5-methyl-2,3,3a,4,6,6a-hexahydropyrrolo[2,3-c]pyrrol-1-yl)-8-(methylamino)-9H-pyrido[2,3-b]indol-3-yl]-9-methyl-4-oxo-pyrido[1,2-a]pyrimidine-3-carboxylic acid]",0.164 µg/mL,275 µg/mL,–,–,–
"CNc1cc(F)c(F)c2c1[nH]c1ncc(-c3ccc4ncc(C(=O)O)c(=O)n4c3)c(N3CCN4CCOCC4C3)c12 (stereo not drawn) [Example 1.28, 7-(5,6-Difluoro-4-(hexahydropyrazino[2,1-c][1,4]oxazin-8(1H)-yl)-8-(methylamino)-9H-pyrido[2,3-b]indol-3-yl)-4-oxo-4H-pyrido[1,2-a]pyrimidine-3-carboxylic acid compound with formic acid]",–,–,0.356 µg/mL,–,–
"CNc1cc(F)c(F)c2c1[nH]c1ncc(-c3cc(C)c4ncc(C(=O)O)c(=O)n4c3)c(C3CC3)c12 [Example 3.01, 7-[4-Cyclopropyl-5,6-difluoro-8-(methylamino)-9H-pyrido[2,3-b]indol-3-yl]-9-methyl-4-oxo-pyrido[1,2-a]pyrimidine-3-carboxylic Acid]",0.594 µg/mL,–,–,0.11 µM,0.808 µM
"CNc1cc(F)c(F)c2c1[nH]c1ncc(-c3cc(C)c4ncc(C(=O)O)c(=O)n4c3)c(N(C)C)c12 [Example 1.02, 7-[4-(Dimethylamino)-5,6-difluoro-8-(methylamino)-9H-pyrido[2,3-b]indol-3-yl]-9-methyl-4-oxo-pyrido[1,2-a]pyrimidine-3-carboxylic acid]",0.598 µg/mL,–,–,≤ 0.098 µM,0.262 µM
"CNc1cc(F)c(F)c2c1[nH]c1ncc(-c3cc(N4CCOCC4)c4ncc(C(=O)O)c(=O)n4c3)c(N(C)C)c12 [Example 1.06, 7-[4-(Dimethylamino)-5,6-difluoro-8-(methylamino)-9H-pyrido[2,3-b]indol-3-yl]-9-morpholino-4-oxo-pyrido[1,2-a]pyrimidine-3-carboxylic acid]",0.122 µg/mL,–,–,0.187 µM,0.828 µM
"CNc1c(F)c(F)cc2c1[nH]c1ncc(-c3ccc4ncc(C(=O)O)c(=O)n4c3)c(N3CC[C@@H](N(C)C)C3)c12 [Example 1.27, (R)-7-(4-(3-(Dimethylamino)pyrrolidin-1-yl)-6,7-difluoro-8-(methylamino)-9H-pyrido[2,3-b]indol-3-yl)-4-oxo-4H-pyrido[1,2-a]pyrimidine-3-carboxylic acid]",0.759 µg/mL,31 µg/mL,–,–,–
"CNc1cc(F)cc2c1[nH]c1ncc(-c3ccc4ncc(C(=O)O)c(=O)n4c3)c(N3CCC(CN(C)C4CC4)C3)c12 (stereo not drawn) [Example 1.21, 7-(4-(3-((cyclopropyl(methyl)amino)methyl)pyrrolidin-1-yl)-6-fluoro-8-(methylamino)-9H-pyrido[2,3-b]indol-3-yl)-4-oxo-4H-pyrido[1,2-a]pyrimidine-3-carboxylic acid]",0.392 µg/mL,230 µg/mL,–,0.155 µM,4.78 µM
"CNc1cc(F)c(F)c2c1[nH]c1ncc(-c3cc(CN4CCOCC4)c4ncc(C(=O)O)c(=O)n4c3)c(N3CCCC3)c12 [Example 2.04, 7-[5,6-Difluoro-8-(methylamino)-4-pyrrolidin-1-yl-9H-pyrido[2,3-b]indol-3-yl]-9-(morpholinomethyl)-4-oxo-pyrido[1,2-a]pyrimidine-3-carboxylic acid]",0.0432 µg/mL,91 µg/mL,–,0.22 µM,1.21 µM
"CNc1cc(Cl)cc2c1[nH]c1ncc(-c3ccc4ncc(C(=O)O)c(=O)n4c3)c(N(C)C)c12 [Example 1.16, 7-(6-Chloro-4-(dimethylamino)-8-(methylamino)-9H-pyrido[2,3-b]indol-3-yl)-4-oxo-4H-pyrido[1,2-a]pyrimidine-3-carboxylic acid]",0.169 µg/mL,–,–,0.183 µM,1.97 µM
"CNc1cc(F)c(Cl)c2c1[nH]c1ncc(-c3ccc4ncc(C(=O)O)c(=O)n4c3)c(N(C)C)c12 [Example 1.23, 7-(5-Chloro-4-(dimethylamino)-6-fluoro-8-(methylamino)-9H-pyrido[2,3-b]indol-3-yl)-4-oxo-4H-pyrido[1,2-a]pyrimidine-3-carboxylic acid]",0.0871 µg/mL,–,–,≤ 0.098 µM,0.458 µM
"CNc1cc(F)c(F)c2c1[nH]c1ncc(-c3cc(CN4CCC5CN(C)CC54)c4ncc(C(=O)O)c(=O)n4c3)c(N(C)C)c12 (stereo not drawn) [Example 2.06, 7-[4-(Dimethylamino)-5,6-difluoro-8-(methylamino)-9H-pyrido[2,3-b]indol-3-yl]-9-[(5-methyl-2,3,3a,4,6,6a-hexahydropyrrolo[2,3-c]pyrrol-1-yl)methyl]-4-oxo-pyrido[1,2-a]pyrimidine-3-carboxylic acid]",0.84 µg/mL,> 840 µg/mL,–,–,–
"CNc1cc(F)c(F)c2c1[nH]c1ncc(-c3cc(N4CCOCC4)c4ncc(C(=O)O)c(=O)n4c3)c(N(C)C)c12 [Example 1.32, 7-[4-(Dimethylamino)-5,6-difluoro-8-(methylamino)-9H-pyrido[2,3-b]indol-3-yl]-9-morpholino-4-oxo-pyrido[1,2-a]pyrimidine-3-carboxylic acid]",–,43 µg/mL,–,–,–
"CNc1cc(F)c(F)c2c1[nH]c1ncc(-c3ccc4ncc(C(=O)O)c(=O)n4c3)c(N3CC(CN(C)C)C(F)(F)C3)c12 (stereo not drawn) [Example 1.22, 7-[4-[4-[(dimethylamino)methyl]-3,3-difluoro-pyrrolidin-1-yl]-5,6-difluoro-8-(methylamino)-9H-pyrido[2,3-b]indol-3-yl]-4-oxo-pyrido[1,2-a]pyrimidine-3-carboxylic acid]",–,65 µg/mL,–,–,–
"CNc1cc(F)c(F)c2c1[nH]c1ncc(-c3ccc4ncc(C(=O)O)c(=O)n4c3)c(N3CCC(CN(C)CC(F)F)C3)c12 (stereo not drawn) [Example 1.20, 7-(4-(3-(((2,2-Difluoroethyl)(methyl)amino)methyl)pyrrolidin-1-yl)-5,6-difluoro-8-(methylamino)-9H-pyrido [2,3-b]indol-3-yl)-4-oxo-4H-pyrido[1,2-a]pyrimidine-3-carboxylic acid]",0.0707 µg/mL,165 µg/mL,–,–,–
"CNc1cc(F)c(F)c2c1[nH]c1ncc(-c3ccc4ncc(C(=O)O)c(=O)n4c3)c(N3CCC4CN(C)CC43)c12 (stereo not drawn) [Example 1.08, 7-[5,6-Difluoro-4-(5-methyl-2,3,3a,4,6,6a-hexahydropyrrolo[2,3-c]pyrrol-1-yl)-8-(methylamino)-9H-pyrido[2,3-b]indol-3-yl]-4-oxo-pyrido[1,2-a]pyrimidine-3-carboxylic acid]",–,60 µg/mL,–,–,–
"CNc1cc(F)c(F)c2c1[nH]c1ncc(-c3cc(N4CCOCC4)c4ncc(C(=O)O)c(=O)n4c3)c(N3CCCC3)c12 [Example 1.07, 7-[5,6-Difluoro-8-(methylamino)-4-pyrrolidin-1-yl-9H-pyrido[2,3-b]indol-3-yl]-9-morpholino-4-oxo-pyrido[1,2-a]pyrimidine-3-carboxylic acid]",0.0911 µg/mL,–,–,0.319 µM,0.885 µM
